Laboratory results: patent publication US9051345B2, “Metalloinsertor complexes targeted to DNA mismatches” (CALIFORNIA INSTITUTE OF TECHNOLOGY, priority 2011, dated 2015)
Peptide text beside a SMILES is read from it. * marks the point of attachment. Cbz = O=C(OCc1ccccc1)*; CH2F = FC*

Legend:
HCT116O cells [1] = test: MTT cytotoxicity assay; type: cell-based, human; conditions: for effect of PARP inhibitor on the selective MMR-dependent effects of the rhodium compound: with 20 μM [Rh(HDPA)2chrysi]^3+, HCT116N versus HCT116O
Procedure: Cytotoxicity assays were performed as described in Mosmann, 1983, J. Immunol. Methods, 65, 55-63, the entire contents of which is incorporated herein by reference. HCT116N and HCT116O cells were plated in 96-well plates at 50,000 cells/well and incubated with rhodium for the durations specified. After incubation with the indicated rhodium complexes, cells were labeled with MTT for 4 hours at 37° C. under 5% CO2 and humidified atmosphere. The resulting formazan crystals were dissolved with solubilizing reagent purchased from Roche according to the manufacturer's instructions. The dissolved formazan was quantified as the absorbance at 570 nm minus the background absorbance at 690 nm. Percent viability was determined as the ratio of the amount of formazan in the treated cells to that of the untreated cells.
In order to elucidate the mechanism of action for the cytotoxicity caused by a metalloinsertor complex of Formula I, the MTT cytotoxicity assay was repeated in the absence and presence of the pan-caspase inhibitor Z-VAD-FMK. This inhibitor works by irreversibly binding to the active site of caspases which participate in the apoptotic pathway. […] The HCT116N and HCT116O cell lines were treated with 0-30 μM of the [Rh(HDPA)2chrysi]^3+ complex for 24-72 hours. […]
In order to determine the mechanism of action for cytotoxicity caused by a metalloinsertor complex of Formula I, the MTT cytotoxicity assay was repeated in conjunction with a panel of poly-ADP ribose polymerase (PARP) inhibitors: DPQ, 3-AB, 4-AN, and ABT-888, as described in Costantino et al., 2001, J. Med. Chem., 44, 3786-3794; Purnell et al., 1980, Biochem. J. 185, 775-777; Banasik et al., 1992, J. Biol. Chem. 267, 1569-1575; and Donawho et al., 2007, Clin. Cancer Res., 13, 2728-2737, the entire contents of all of which are incorporated herein by reference. The HCT116N and HCT116O cell lines were treated with 0 or 20 μM of the [Rh(HDPA)2chrysi]^3+ complex for 72 hours, with or without one of the four inhibitors. The inhibitor 3,4-Dihydro-5[4-(1-piperindinyl)butoxy]-1(2H)-isoquinoline (DPQ) was added to a final concentration of 0, 25, or 50 μM; the inhibitor 3-aminobenzamide (3-AB) was added to a final concentration of 0, 2, or 3 mM; the inhibitor 4-amino-1,8-napthalimide (4-AN) was added to a final concentration of 0, 10, or 20 μM; and the inhibitor 2-((R)-2-Methylpyrrolidin-2-yl)-1H-benzimidazole-4-carboxamide (ABT-888) was added to a final concentration of 0, 5, or 10 μM. […] For example, in the case of the compound DPQ, this difference was 43±2.7% without inhibitor and 0.6±3.0% with inhibitor.

HCT116O cells [2] = test: ICP-MS assay, nuclear and mitochondrial rhodium accumulation; type: cell-based, human; conditions: 10 uM, 24 h, comparison in words
Procedure: To assay the subcellular localization of the rhodium complexes, an inductively coupled plasma mass spectrometry (ICP-MS) assay was used to quantify the uptake of the complexes in both whole cell extracts and nuclear and mitochondrial fractions.
Mitochondrial Rhodium Accumulation. With reference to FIG. 31B, HCT116O cells were plated in 75 cm^2 culture flasks at 2.0×10^7 cells/plate and incubated at 37° C., 5% CO2 for 24 h. Rhodium was added to 10 uM and cells were grown for an additional 24 h. The cells were then harvested by trypsinization and centrifuged for 5 min at 1,200 rpm. The supernatants were decanted, and the cell pellets were resuspended in 1 ml cold PBS (pH 7.2). The cells were centrifuged again for 5 min at 1,200 rpm. The supernatants were discarded, and the resultant pellets were resuspended in 0.5 ml mitochondrial extraction buffer (200 mM mannitol, 68 mM sucrose, 50 mM Pipes, 50 mM KCl, 5 mM EGTA, 2 mM MgCl2; 1 mM DTT and protease inhibitors were added right before use). The samples were incubated on ice for 20 min, and the suspensions were homogenized via passage through a needle and syringe (35×). The homogenized cells were then centrifuged for 5 min at 750 rpm. The supernatants were collected and spun again at 14,000 g for 10 min. The supernatants were decanted, and the resulting mitochondrial pellet was suspended in 0.8 ml H2O via probe sonication. […]

HCT116O cells [3] = conditions: HCT116N and HCT116O; called known; cited from earlier work

Compound	effect of PARP inhibitor on the selective MMR-dependent effects of the rhodium compound (HCT116O cells [1]; MTT, 72 hours)	selective cytotoxicity, MMR-deficient HCT116O versus MMR-proficient HCT116N cells (HCT116O cells [1])	other results
NC(=O)c1cccc(N)c1 [3-AB, 3-aminobenzamide, reference compound]	completely abolished the selective MMR-dependent effects	–	–
Nc1ccc2c3c(cccc13)C(=O)NC2=O [4-AN, 4-amino-1,8-napthalimide, reference compound]	completely abolished the selective MMR-dependent effects	–	–
C[C@]1(c2nc3c(C(N)=O)cccc3[nH]2)CCCN1 [ABT-888, 2-((R)-2-Methylpyrrolidin-2-yl)-1H-benzimidazole-4-carboxamide, reference compound]	completely abolished the selective MMR-dependent effects	–	–
O=C1NCCc2c(OCCCCN3CCCCC3)cccc21 [DPQ, 3,4-Dihydro-5[4-(1-piperindinyl)butoxy]-1(2H)-isoquinoline, reference compound]	completely abolished the selective MMR-dependent effects	–	–
COC(=O)C[C@H](NC(=O)[C@H](C)NC(=O)[C@@H](NC(=O)OCc1ccccc1)C(C)C)C(=O)CF [Z-VAD-FMK, reference compound] (Cbz-Val-Ala-Asp(OMe)-CH2F)	–	–	protection from rhodium by the caspase inhibitor at 20 M (so in the source) (HCT116O cells [1]; MTT, HCT116N and HCT116O, with [Rh(HDPA)2chrysi]^3+): no protection from rhodium; protection from rhodium by the caspase inhibitor at 40 μM (HCT116O cells [1]; MTT, HCT116O, with [Rh(HDPA)2chrysi]^3+): some protection from rhodium
[Rh(DPAE)2chrysi]^3+	–	increased cytotoxicity to the MMR-deficient HCT116O cells	share of cellular rhodium complex that is nuclear (HCT116O cells [2]): greater percentage; incubation time at which cell selective activity is exhibited (HCT116O cells [1]; HCT116O versus HCT116N): ≤ 6 h
[Rh(MeDPA)2chrysi]Cl3 [[Rh(MeDPA)2chrysi]^3+]	–	differential toxicity against the HCT116O cell line comparable to that of [Rh(HDPA)2chrysi]^3+	toxicity in MMR-deficient HCT116O versus HCT116N cells at 48 hours (HCT116O cells [1]; MTT, 48 hours): enhance toxicity in the MMR-deficient HCT116O cells
[Rh(NH3)4phzi]Cl3 [[Rh(NH3)4phzi]^3+]	–	selective cytotoxicities towards the MMR-deficient HCT116O cells	–
[Rh(PrDPA)2chrysi]^3+	–	–	mitochondrial rhodium content (HCT116O cells [2]): greater than that of cells incubated with [Rh(DPAE)2(chrysi)]^3+; selectivity of inhibitory effects after 72 hours (HCT116O cells [1]; MTT, HCT116N and HCT116O, 72 hours): non-selective inhibitory effects
[Rh(bpy)2chrysi]^3+	–	–	cytotoxicity (known property) (HCT116O cells [3]): non-toxic
[Rh(chrysi)(phen)(DPE)]Cl3 [[Rh(chrysi)(phen)(DPE)]^2+]	–	selective cytotoxicities towards the MMR-deficient HCT116O cells	–
[Rh(chrysi)(phen)(PPE)]^2+	–	selective cytotoxicities towards the MMR-deficient HCT116O cells	–
[Rh(chrysi)(phen)(PyPrO)]^2+	–	selective cytotoxicities towards the MMR-deficient HCT116O cells	–
